According to US11597746B2, “Cyclic dinucleotides as sting agonists” (JANSSEN BIOTECH, INC., priority 2018, dated 2023):

System: human STING pathway in THP1-ISG cells
Assay: STING human cell reporter assay
Format: cell-based
Conditions: IRF-inducible SEAP reporter, 24 h
Protocol: STING Human Cell Reporter Assay
Agonism of the human STING pathway is assessed in THP1-ISG cells (Invivogen, cat #thp-isg) derived from human THP1 monocyte cell line by stable integration of an interferon regulatory factor (IRF)-inducible SEAP reporter construct. THP1-Blue ISG cells express a secreted embryonic alkaline phosphatase (SEAP) reporter gene under the control of an ISG54 minimal promoter in conjunction with five interferon (IFN)-stimulated response elements. As a result, THP1-Blue ISG cells allow the monitoring of IRF activation by determining the activity of SEAP. The levels of IRF-induced SEAP in the cell culture supernatant are readily assessed with alkaline phosphatase detection medium, a SEAP detection reagent. These cells are resistant to Zeocin. 2′3′cGAMP was used as a positive control in this assay. To run the assay, 60,000 cells were dispensed in 30 μL/well of a white, opaque bottom tissue culture treated 384-well plate.
Test compounds were added in a volume of 10 μL (1% DMSO final concentration). Compounds are initially prepared in 100% DMSO, spotted on an intermediate dilution plate and then diluted in media prior to transfer. The assay was incubated for 24 h at 37° C., 5% CO2 then plates were centrifuged at 1200 rpm (120×g) for 5 min. After final incubation, 90 μL of alkaline phosphatase detection medium-substrate was added to each well of a new 384-well clear plate and 10 μL of the cell supernatant was transferred from the assay plate to the new alkaline phosphatase detection medium-plate using a Biomek FX and mixed 4 times.

Row | SMILES | EC50 [nM]
1 | Nc1ncnc2c1ncn2[C@@H]1O[C@@H]2CNS(=O)(=O)O[C@H]3C[C@H](n4ncc5c(=O)[nH]cnc54)O[C@@H]3COP(=O)(O)O[C@H]2[C@H]1F [Compound 39] | > 100000
2 | Nc1ncnc2c1ncn2[C@@H]1O[C@@H]2CNS(=O)(=O)O[C@H]3[C@@H](F)[C@H](n4cnc5c(N)ncnc54)O[C@@H]3CNS(=O)(=O)O[C@H]2[C@H]1F [Compound 47] | 290
3 | Nc1ncnc2c1ncn2[C@@H]1O[C@@H]2CNS(=O)(=O)O[C@H]3C[C@H](n4cnc5c(=O)[nH]ncc54)O[C@@H]3COP(=O)(O)O[C@H]2[C@H]1F [Compound 43] | 730
4 | Nc1ncnc2c1ncn2[C@@H]1O[C@@H]2CNS(=O)(=O)O[C@H]3[C@@H](F)[C@H](n4cnc5c(N)ncnc54)O[C@@H]3CO[P@](=O)(S)O[C@H]2[C@H]1F (single isomer, unassigned) [Compound 3] | 540
5 | Nc1nc2c(ncn2[C@@H]2O[C@@H]3CO[P@@](=O)(S)O[C@H]4[C@@H](F)[C@H](n5cnc6c(N)ncnc65)O[C@@H]4CNS(=O)(=O)O[C@H]3[C@@H]2F)c(=O)[nH]1 (single isomer, unassigned) [Compound 34-R] | 23700
6 | Nc1ncnc2c1ncn2[C@@H]1O[C@@H]2COP(=O)(O)O[C@H]3[C@@H](F)[C@H](n4cnc5c(=O)[nH]cnc54)O[C@@H]3CNS(=O)(=O)O[C@H]2[C@H]1F [Compound 24] | 70
7 | Nc1ncnc2c1ncn2[C@@H]1O[C@@H]2CNS(=O)(=O)O[C@H]3[C@@H](F)[C@H](n4cnc5c(N)ncnc54)O[C@@H]3COP(=O)(O)O[C@H]2[C@H]1F [Compound 1] | 160
8 | Nc1ncnc2c1ncn2[C@@H]1O[C@@H]2CNS(=O)(=O)O[C@H]3C[C@H](n4cnc5cc(Cl)c(Cl)cc54)O[C@@H]3COP(=O)(O)O[C@H]2[C@H]1F [Compound 32] | 180
9 | Nc1ncnc2c1ncn2[C@@H]1O[C@@H]2CNS(=O)(=O)O[C@H]3[C@@H](F)[C@H](n4cnc5c(N)ncnc54)O[C@@H]3CO[P@@](=O)(S)O[C@H]2[C@H]1F [Compound 2] | 12
10 | Nc1ncnc2c1ncn2[C@@H]1O[C@@H]2CNS(=O)(=O)O[C@H]3[C@@H](F)[C@H](n4cnc5c(=O)[nH]cnc54)O[C@@H]3CO[P@](=O)(S)O[C@H]2[C@H]1F [Compound 17-S] | 4230
11 | Nc1ncnc2c1ncn2[C@@H]1O[C@@H]2CNS(=O)(=O)O[C@H]3[C@@H](F)[C@H](n4cnc5c(=O)[nH]cnc54)O[C@@H]3CO[P@@](=O)(S)O[C@H]2[C@H]1F [Compound 17-R] | 980
12 | Nc1ncnc2c1ncn2[C@@H]1O[C@@H]2CNS(=O)(=O)O[C@H]3C[C@H](n4nnc5c(=O)[nH]cnc54)O[C@@H]3COP(=O)(O)O[C@H]2[C@H]1F [Compound 42] | 100000
13 | Nc1nc2c(ncn2[C@@H]2O[C@@H]3CO[P@](=O)(S)O[C@H]4[C@@H](O)[C@H](n5cnc6c(N)ncnc65)O[C@@H]4CNS(=O)(=O)O[C@H]3[C@H]2F)c(=O)[nH]1 [Compound 14-S] | > 100000
14 | Nc1ncnc2c1ncn2[C@@H]1O[C@@H]2CNS(=O)(=O)O[C@H]3C[C@H](n4cc(F)c5c(N)ncnc54)O[C@@H]3COP(=O)(O)O[C@H]2[C@H]1F [Compound 29] | > 100000
15 | Nc1ncnc2c1ncn2[C@@H]1O[C@@H]2CNS(=O)(=O)O[C@H]3[C@H]4OO[C@]3(CO[P@](=O)(S)O[C@H]2[C@H]1F)O[C@H]4n1cnc2c(N)ncnc21 [Compound 37-S] | 640
16 | Nc1nc2c(ncn2[C@@H]2O[C@@H]3CO[P@](=O)(S)O[C@H]4[C@@H](F)[C@H](n5cnc6c(N)ncnc65)O[C@@H]4CNS(=O)(=O)O[C@H]3[C@@H]2F)c(=O)[nH]1 (single isomer, unassigned) [Compound 34-S] | 47700
17 | Nc1ncnc2c1ncn2[C@@H]1O[C@@H]2COP(=O)(O)O[C@H]3C[C@H](n4cnc5c(N)ncnc54)O[C@@H]3CNS(=O)(=O)O[C@H]2[C@H]1F [Compound 6] | 2940
18 | Nc1nc2c(ncn2[C@@H]2O[C@@H]3CO[P@@](=O)(S)O[C@H]4[C@@H](F)[C@H](n5cnc6c(N)ncnc65)O[C@@H]4CNS(=O)(=O)O[C@H]3[C@H]2F)c(=O)[nH]1 (single isomer, unassigned) [Compound 18-R] | 93
19 | COc1ccc(CO[C@@H]2[C@@H]3OS(=O)(=O)NC[C@H]4O[C@@H](n5cnc6c(N)ncnc65)[C@H](F)[C@@H]4OP(=O)(O)OC[C@H]3O[C@H]2n2cnc3c(N)ncnc32)cc1 [Compound 15-R] | > 100000

Row | SMILES | EC50 [nM]
20 | Nc1ncnc2c1ncn2[C@@H]1O[C@@H]2CNS(=O)(=O)O[C@H]3[C@@H](F)[C@H](n4cnc5c(N)ncnc54)O[C@@H]3CO[P@@](=O)(S)O[C@H]2[C@H]1F [Compound 20-R] | 350
21 | Nc1nc2c(ncn2[C@@H]2O[C@@H]3CNS(=O)(=O)O[C@H]4[C@H](F)[C@H](n5cnc6c(N)ncnc65)O[C@@H]4CO[P@](=O)(S)O[C@H]3[C@H]2F)c(=O)[nH]1 (single isomer, unassigned) [Compound 16-S] | 4.6
22 | Nc1nc2c(ncn2[C@@H]2O[C@@H]3COP(=O)(O)O[C@H]4[C@@H](F)[C@H](n5cnc6c(N)ncnc65)O[C@@H]4CNS(=O)(=O)O[C@H]3[C@H]2OCc2ccccc2)c(=O)[nH]1 [Compound 46] | > 100000
23 | Nc1nc2c(ncn2[C@@H]2O[C@@H]3CO[P@@](=O)(S)O[C@H]4[C@@H](O)[C@H](n5cnc6c(N)ncnc65)O[C@@H]4CNS(=O)(=O)O[C@H]3[C@H]2F)c(=O)[nH]1 [Compound 14-R] | 1830
24 | Nc1ncnc2c1ncn2[C@@H]1O[C@@H]2CNS(=O)(=O)O[C@H]3C[C@H](n4cnc5cncnc54)O[C@@H]3COP(=O)(O)O[C@H]2[C@H]1F [Compound 33] | 730
25 | Nc1nc2c(ncn2[C@@H]2O[C@@H]3COP(=O)(O)O[C@H]4[C@@H](F)[C@H](n5cnc6c(N)ncnc65)O[C@@H]4CNS(=O)(=O)O[C@H]3[C@@H]2F)c(=O)[nH]1 [Compound 26] | 30
26 | Nc1nc2c(ncn2[C@@H]2O[C@@H]3COP(=O)(O)O[C@H]4[C@@H](O)[C@H](n5cnc6c(N)ncnc65)O[C@@H]4CNS(=O)(=O)O[C@H]3[C@H]2F)c(=O)[nH]1 [Compound 9] | 6240
27 | Nc1ncnc2c1ncn2[C@@H]1O[C@@H]2CNS(=O)(=O)O[C@H]3[C@@H](F)[C@H](n4cnc5c(N)ncnc54)O[C@@H]3CO[P@](=O)(S)O[C@H]2[C@H]1F [Compound 20-S] | 61800
28 | CO[C@@H]1[C@@H]2OS(=O)(=O)NC[C@H]3O[C@@H](n4cnc5c(N)ncnc54)[C@H](F)[C@@H]3OP(=O)(O)OC[C@H]2O[C@H]1n1cnc2c(=O)[nH]c(N)nc21 [Compound 4] | 64100
29 | Nc1ncnc2c1ncn2[C@@H]1O[C@@H]2CO[P@](=O)(S)O[C@H]3[C@@H](F)[C@H](n4cnc5c(=O)[nH]cnc54)O[C@@H]3COS(=O)(=O)O[C@H]2[C@H]1F (single isomer, unassigned) [Compound 22-S] | 97
30 | Nc1ncnc2c1ncn2[C@H]1C[C@@H]2NS(=O)(=O)OC[C@H]3O[C@@H](n4cnc5c(=O)[nH]cnc54)[C@H](F)[C@@H]3OP(=O)(O)OC[C@H]2O1 [Compound 28] | 730
31 | Nc1ncnc2c1ncn2[C@@H]1O[C@@H]2CO[P@@](=O)(S)O[C@H]3[C@@H](F)[C@H](n4cnc5c(=O)[nH]cnc54)O[C@@H]3COS(=O)(=O)O[C@H]2[C@H]1F (single isomer, unassigned) [Compound 22-R] | 29
32 | Nc1nc2c(ncn2[C@@H]2O[C@@H]3CNS(=O)(=O)O[C@H]4[C@H](F)[C@H](n5cnc6c(N)ncnc65)O[C@@H]4CO[P@@](=O)(S)O[C@H]3[C@H]2F)c(=O)[nH]1 (single isomer, unassigned) [Compound 16-R] | 1830
33 | Nc1ncnc2c1ncn2[C@@H]1O[C@@H]2CO[P@](=O)(S)O[C@H]3[C@@H](F)[C@H](n4cnc5c(=O)[nH]cnc54)O[C@@H]3CNS(=O)(=O)O[C@H]2[C@H]1F (single isomer, unassigned) [Compound 31-S] | 970
34 | Nc1ncnc2c1ncn2[C@@H]1O[C@@H]2CO[P@@](=O)(S)O[C@H]3[C@@H](F)[C@H](n4cnc5c(=O)[nH]cnc54)O[C@@H]3CNS(=O)(=O)O[C@H]2[C@H]1F (single isomer, unassigned) [Compound 31-R] | 930
35 | Nc1nc(N)c2ncn([C@@H]3O[C@@H]4COP(=O)(O)O[C@H]5[C@@H](F)[C@H](n6cnc7c(N)ncnc76)O[C@@H]5CNS(=O)(=O)O[C@H]4[C@H]3F)c2n1 [Compound 44] | 2650
36 | Nc1nc2c(ncn2[C@@H]2O[C@@H]3CNS(=O)(=O)O[C@H]4[C@H](F)[C@H](n5cnc6c(N)ncnc65)O[C@@H]4COP(=O)(O)O[C@H]3[C@H]2F)c(=O)[nH]1 [Compound 13] | 20
37 | Nc1ncnc2c1ncn2[C@@H]1O[C@@H]2CNS(=O)(=O)O[C@H]3[C@H]4OO[C@]3(CO[P@@](=O)(S)O[C@H]2[C@H]1F)O[C@H]4n1cnc2c(N)ncnc21 [Compound 37-R] | 880
38 | Nc1nc2c(ncn2[C@@H]2O[C@@H]3CO[P@](=O)(S)O[C@H]4[C@@H](F)[C@H](n5cnc6c(N)ncnc65)O[C@@H]4CNS(=O)(=O)O[C@H]3[C@H]2F)c(=O)[nH]1 (single isomer, unassigned) [Compound 18-S] | 21100

Target: human STING (Homo sapiens (Human), UniProt Q86WV6, H232R)
Sequence (Q86WV6 139-379 H232R): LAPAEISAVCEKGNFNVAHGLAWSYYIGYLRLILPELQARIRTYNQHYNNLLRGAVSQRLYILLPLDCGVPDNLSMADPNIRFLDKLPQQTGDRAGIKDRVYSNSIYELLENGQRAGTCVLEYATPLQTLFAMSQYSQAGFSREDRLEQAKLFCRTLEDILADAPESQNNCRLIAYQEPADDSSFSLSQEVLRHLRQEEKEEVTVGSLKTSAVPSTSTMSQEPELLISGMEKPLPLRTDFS
Assay: STING SPA binding assay
Conditions: displacement of [3H]-2′3′-cGAMP from biotinylated recombinant STING (residues 139-379, H232R); read-out: hSTING SPA IC50

Row | SMILES | IC50 [nM]
39 | COc1ccc(CO[C@@H]2[C@@H]3OS(=O)(=O)NC[C@H]4O[C@@H](n5cnc6c(N)ncnc65)[C@H](F)[C@@H]4OP(=O)(O)OC[C@H]3O[C@H]2n2cnc3c(N)ncnc32)cc1 [Compound 15-R] | > 100000
40 | Nc1nc2c(ncn2[C@@H]2O[C@@H]3COP(=O)(O)O[C@H]4[C@@H](F)[C@H](n5cnc6c(N)ncnc65)O[C@@H]4CNS(=O)(=O)O[C@H]3[C@H]2OCc2ccccc2)c(=O)[nH]1 [Compound 46] | > 100000

Same assay, conditions: natural ligand

Row | SMILES | values in STING SPA binding assay
41 | Nc1nc2c(ncn2[C@@H]2O[C@@H]3COP(=O)(O)O[C@H]4[C@@H](O)[C@H](n5cnc6c(=O)[nH]c(N)nc65)O[C@@H]4COP(=O)(O)O[C@H]3[C@H]2O)c(=O)[nH]1 [cyclic-di-GMP, reference compound] | within the expected range
